Target: Bacillus anthracis lethal factor (Bacillus anthracis, UniProt P15917)
Assay type: biochemical
Details: read-out: lethal factor enzyme binding assay IC50

Bacillus anthracis lethal factor, sequence (P15917 34-809 limits assumed): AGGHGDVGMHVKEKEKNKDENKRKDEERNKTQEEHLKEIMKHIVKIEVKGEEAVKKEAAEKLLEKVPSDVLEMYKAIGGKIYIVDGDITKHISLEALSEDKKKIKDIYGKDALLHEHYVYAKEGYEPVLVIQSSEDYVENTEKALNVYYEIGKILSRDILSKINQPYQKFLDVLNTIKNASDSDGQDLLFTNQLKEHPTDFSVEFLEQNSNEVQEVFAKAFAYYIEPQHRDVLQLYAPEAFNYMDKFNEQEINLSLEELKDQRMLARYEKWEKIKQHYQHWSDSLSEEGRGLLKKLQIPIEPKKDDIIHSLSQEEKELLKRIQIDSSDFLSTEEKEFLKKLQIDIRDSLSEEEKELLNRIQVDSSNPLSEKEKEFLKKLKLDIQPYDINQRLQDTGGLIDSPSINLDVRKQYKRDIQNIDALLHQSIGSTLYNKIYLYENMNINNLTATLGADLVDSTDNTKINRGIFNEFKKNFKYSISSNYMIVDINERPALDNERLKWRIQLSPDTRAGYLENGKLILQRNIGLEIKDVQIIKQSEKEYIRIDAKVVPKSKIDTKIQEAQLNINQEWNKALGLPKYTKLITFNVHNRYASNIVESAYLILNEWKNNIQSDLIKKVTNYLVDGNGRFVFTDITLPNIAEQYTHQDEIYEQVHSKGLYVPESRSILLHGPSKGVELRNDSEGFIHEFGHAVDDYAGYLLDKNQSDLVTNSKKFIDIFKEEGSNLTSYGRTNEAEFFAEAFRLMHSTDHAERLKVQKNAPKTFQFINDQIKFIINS

## Cc1cc(S(=O)(=O)N[C@@H](C(=O)NO)C(C)C)ccc1F [N-hydroxy-2(R)-[(4-fluoro-3-methylphenylsulfonyl)]amino-3-methylbutyramide]
  IC50: 0.13 µM

Source: patent US20100003276A1 (priority 2004, published 2010)
